Target: T1, human Nav1.6 (hNav1.6) (Homo sapiens, UniProt Q9UQD0)
T1 construct: expressed in transfected cells; host or cells: HEK-293 (G418 selection)
Assay: Modulation of late sodium current (INaL), PatchXpress electrophysiology
Format: cell-based
Conditions: HEK293; compound at 1 μM; HEK-293 cells expressing recombinant hNav1.6; late current evoked by 300 nM ATX-II; read-out: INaL v1.6 (1 μM, % Inhibition)
Procedure: Functional characterization of exemplary compounds to modulate INaL expressed by the Nav1.6 voltage-gated sodium channel was accomplished using the PatchXpress™ high throughput electrophysiology platform (Molecular Devices, Sunnyvale, Calif.). HEK-293 cells expressing recombinant, human Nav1.6 (hNav1.6) were grown in DMEM/high-glucose Dulbecco's modified, 10% FBS, 2 mM sodium pyruvate, 10 mM HEPES and 400 μg/mL G418. Cells were grown to 50%-80% confluency prior to harvesting. Trypsinized cells were washed, allowed to recover for 1 hour and then resuspended in extracellular recording solution at a concentration of 1×10^6 cells/ml. The onboard liquid handling facility of the PatchXpress was used for dispensing cells and applying test compounds. Nav late currents were evoked by the application of 300 nM ATX-II. INaL was evoked by depolarizing pulses to 0 mV for 200 ms from a non-inactivating holding potential (e.g., −120 mV) at a frequency of 0.1 Hz. INaL amplitude and stability were determined by analyzing the mean current amplitude over the final 20 ms of the test pulse. Following steady state block with exemplary compounds (e.g., as described herein), a Na^+ free solution containing an impermeant cation (e.g., Choline or NDMG) was added to confirm the identify of the sodium current. Percent steady-state inhibition of INaL was calculated as: [(INaL_compound)/(INaL_control)]*100, where INaL_compound and INaL_control represent INaL recorded in the presence or absence of compound, respectively.
Results from this assay relating to percent inhibition of INaL at hNav1.6 (measured using procedure similar to described above but using HEK-293 cells expressing recombinant, human Nav1.6 (hNav1.6) at 1 μM are summarized in Table 1 below. In this table, “A” indicates inhibition of less than 30%; “B” indicates inhibition of between about 30% to about 70%; and “C” indicates inhibition of greater than 70%.

T1 sequence (Q9UQD0 whole entry): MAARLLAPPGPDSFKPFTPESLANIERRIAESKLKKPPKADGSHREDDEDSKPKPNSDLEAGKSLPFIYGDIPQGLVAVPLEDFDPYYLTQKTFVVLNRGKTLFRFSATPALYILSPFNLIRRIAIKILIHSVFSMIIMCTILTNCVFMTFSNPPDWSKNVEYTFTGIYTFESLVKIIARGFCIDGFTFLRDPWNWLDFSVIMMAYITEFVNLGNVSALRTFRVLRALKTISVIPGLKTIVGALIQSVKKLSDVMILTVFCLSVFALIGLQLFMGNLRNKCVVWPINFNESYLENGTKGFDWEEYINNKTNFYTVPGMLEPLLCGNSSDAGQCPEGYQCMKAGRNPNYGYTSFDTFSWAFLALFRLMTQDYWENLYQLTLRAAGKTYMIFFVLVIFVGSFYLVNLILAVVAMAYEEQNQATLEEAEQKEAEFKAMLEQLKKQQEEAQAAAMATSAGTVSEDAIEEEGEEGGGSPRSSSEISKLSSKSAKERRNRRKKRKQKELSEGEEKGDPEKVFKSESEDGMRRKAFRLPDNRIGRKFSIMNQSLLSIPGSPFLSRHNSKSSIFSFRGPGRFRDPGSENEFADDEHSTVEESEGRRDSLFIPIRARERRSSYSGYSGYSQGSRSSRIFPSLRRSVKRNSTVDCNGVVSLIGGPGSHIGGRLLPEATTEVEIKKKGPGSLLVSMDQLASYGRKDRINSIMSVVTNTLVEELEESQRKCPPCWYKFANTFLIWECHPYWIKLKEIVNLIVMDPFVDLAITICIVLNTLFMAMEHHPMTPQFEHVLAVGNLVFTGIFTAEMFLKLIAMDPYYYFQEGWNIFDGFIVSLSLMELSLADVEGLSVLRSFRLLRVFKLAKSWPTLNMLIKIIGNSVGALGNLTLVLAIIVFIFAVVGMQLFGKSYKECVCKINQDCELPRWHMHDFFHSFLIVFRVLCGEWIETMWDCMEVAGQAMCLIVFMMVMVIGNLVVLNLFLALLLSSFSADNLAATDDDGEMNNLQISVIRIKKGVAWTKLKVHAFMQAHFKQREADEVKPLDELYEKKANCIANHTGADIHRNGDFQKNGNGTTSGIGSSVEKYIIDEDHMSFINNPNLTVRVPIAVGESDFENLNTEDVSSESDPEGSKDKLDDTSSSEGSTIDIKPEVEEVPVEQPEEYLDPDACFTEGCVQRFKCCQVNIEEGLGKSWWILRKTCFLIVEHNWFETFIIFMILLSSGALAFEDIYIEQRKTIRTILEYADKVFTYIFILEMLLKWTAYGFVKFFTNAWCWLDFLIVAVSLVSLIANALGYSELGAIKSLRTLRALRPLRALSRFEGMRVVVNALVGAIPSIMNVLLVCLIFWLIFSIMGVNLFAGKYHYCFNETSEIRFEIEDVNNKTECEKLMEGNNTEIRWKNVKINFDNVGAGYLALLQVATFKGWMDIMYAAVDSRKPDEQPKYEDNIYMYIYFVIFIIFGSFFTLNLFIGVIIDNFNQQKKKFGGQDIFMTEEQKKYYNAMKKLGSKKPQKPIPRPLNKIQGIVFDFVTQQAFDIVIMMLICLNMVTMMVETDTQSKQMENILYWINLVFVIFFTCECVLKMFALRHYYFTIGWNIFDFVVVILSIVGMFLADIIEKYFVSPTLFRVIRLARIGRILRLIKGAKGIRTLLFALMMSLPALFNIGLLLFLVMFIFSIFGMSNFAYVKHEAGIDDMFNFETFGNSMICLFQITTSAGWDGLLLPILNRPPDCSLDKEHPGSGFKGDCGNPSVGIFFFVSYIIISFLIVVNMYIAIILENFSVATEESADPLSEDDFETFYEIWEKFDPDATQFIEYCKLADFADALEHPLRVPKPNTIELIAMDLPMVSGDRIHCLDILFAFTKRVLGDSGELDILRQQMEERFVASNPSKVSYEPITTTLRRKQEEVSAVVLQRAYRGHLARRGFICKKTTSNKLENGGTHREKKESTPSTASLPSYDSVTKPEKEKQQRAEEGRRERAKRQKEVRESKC

| inhibition at 1 µM [%] | Structure (SMILES) |
| --- | --- |
| 30 to 70 | CC(C)(Oc1ncc(-c2cc3c(C(F)(F)F)ncn3cn2)cc1F)C(F)(F)F [Compound 17] |
| 30 to 70 | COCc1ncn2cnc(-c3ccc(OC(F)(F)F)cc3)cc12 [Compound 26] |
| < 30 | Fc1cc(-c2cc3c(C(F)(F)F)ncn3cn2)cnc1OCC(F)(F)F [Compound 16] |
| 30 to 70 | CC(C)(Oc1ncc(-c2cc3c(C(F)F)ncn3cn2)cc1F)C(F)(F)F [Compound 21] |
| < 30 | COCc1ncn2cnc(-c3cnc(O[C@@H](C)C(F)(F)F)c(F)c3)cc12 [Compound 24] |
| < 30 | Cc1cc(OC(F)(F)F)ccc1-c1cnn2cnc(C(F)(F)F)c2c1 [Compound 6] |
| < 30 | C[C@@H](Oc1ncc(-c2cc3cncn3cn2)cc1F)C(F)(F)F [Compound 12, 7-[5-fluoro-6-[(1R)-2,2,2-trifluoro-1-methyl-ethoxy]-3-pyridyl]imidazo[1,5-c]pyrimidine] |
| < 30 | FC(F)(F)Oc1ccc(-c2cc3cncn3cn2)cc1 [Compound 7, 7-[4-(trifluoromethoxy)phenyl]imidazo[1,5-c]pyrimidine] |
| < 30 | Cc1cc(OC(F)(F)F)ccc1-c1cc2c(C(F)F)ncn2cn1 [Compound 23] |
| 30 to 70 | FC(F)(F)Oc1ccc(-c2ccn3cnc(C(F)(F)F)c3n2)cc1 [Compound 4] |
| 30 to 70 | C[C@H](Oc1ncc(-c2cc3c(C(F)(F)F)ncn3cn2)cc1F)C(F)(F)F [Compound 18] |
| < 30 | Fc1cc(-c2cc3cncn3cn2)cnc1OCC(F)(F)F [Compound 10, 7-[5-fluoro-6-(2,2,2-trifluoroethoxy)-3-pyridyl]imidazo[1,5-c]pyrimidine] |
| > 70 | Cc1cc(OC(F)(F)F)ccc1-c1cc2c(C(F)(F)F)ncn2cn1 [Compound 14] |
| < 30 | Cc1cc(OC(F)(F)F)ccc1-c1cc2cncn2cn1 [Compound 9, 7-[2-methyl-4-(trifluoromethoxy)phenyl]imidazo[1,5-c]pyrimidine] |
| < 30 | FC(F)(F)Oc1ccc(-c2ccn3cncc3c2)cc1 [Compound 1] |
| > 70 | FC(F)(F)Oc1ccc(-c2cc3c(C(F)(F)F)ncn3cn2)cc1 [Compound 8] |
| > 70 | COCc1ncn2cnc(-c3cnc(O[C@H](C)C(F)(F)F)c(F)c3)cc12 [Compound 25] |
| 30 to 70 | CC(C)(Oc1ncc(-c2cc3cncn3cn2)cc1F)C(F)(F)F [Compound 13, 7-[5-fluoro-6-(2,2,2-trifluoro-1,1-dimethyl-ethoxy)-3-pyridyl]imidazo[1,5-c]pyrimidine] |
| < 30 | Fc1cc(-c2cc3c(C(F)F)ncn3cn2)cnc1OCC(F)(F)F [Compound 22] |
| < 30 | C[C@@H](Oc1ncc(-c2cc3c(C(F)F)ncn3cn2)cc1F)C(F)(F)F [Compound 19] |
| 30 to 70 | C[C@H](Oc1ncc(-c2cc3cncn3cn2)cc1F)C(F)(F)F [Compound 11, 7-[5-fluoro-6-[(1S)-2,2,2-trifluoro-1-methyl-ethoxy]-3-pyridyl]imidazo[1,5-c]pyrimidine] |
| < 30 | COCc1ncn2cnc(-c3cnc(OC(C)(C)C(F)(F)F)c(F)c3)cc12 [Compound 27] |
| < 30 | Cc1cc(OC(F)(F)F)ccc1-c1cnn2cncc2c1 [Compound 5, 3-[2-methyl-4-(trifluoromethoxy)phenyl]imidazo[1,5-b]pyridazine] |
| < 30 | FC(F)(F)Oc1ccc(-c2ccn3cnc(C(F)(F)F)c3c2)cc1 [Compound 2] |
| 30 to 70 | C[C@@H](Oc1ncc(-c2cc3c(C(F)(F)F)ncn3cn2)cc1F)C(F)(F)F [Compound 15] |
| < 30 | C[C@H](Oc1ncc(-c2cc3c(C(F)F)ncn3cn2)cc1F)C(F)(F)F [Compound 20] |
